Experimental data reported in US20230321086A1, “METHODS AND MATERIALS FOR INHIBITING NICOTINAMIDE PHOSPHORIBOSYLTRANSFERASE ACTIVITY” (Universiy of Pittsburgh - Of the Commonwealth System of …, priority 2020, published 2023).

test system: A431 cells; experiment: Assay for total NADH and NAD+ measurements in cells; type: cell-based; set-up: C: change in NAD levels in response to test compound, shown as % of NAD activity in the absence of test compound: concentration or dose not given beside the values; details: percent of NAD level of untreated control cells (100 = no change)
Experimental: 2,000 cells/well and, at the same time, test compounds dissolved in media at the desired concentration were added to each well. The treated cells were incubated overnight in C02 incubator. The cells were washed 6 times with PBS with 1 mM CaCl2) and 1 mM MgCl2. In the last wash, 10 μL of PBS with 1 mM CaCl2) and 1 mM MgCl2 per well were left in each well. Immediately thereafter, 10 μL 0.4% dodecyltrimethylammonium bromide (DTAB) in phosphate buffer pH 8.0 as added, and the plates were shaked at 1000 rpm for 5 minutes. 60 μL reaction mix was added, and fluorescence at Ex/Em 530/585 was immediately monitored. A linear increase should be achieved with 8 cycles every 92 seconds, 10 number of flashes/well/cycle. The reaction mix was prepared per the following table, respecting the amount and order in which each component was added:
All assays were performed in A431 cells. Referring to the tables below, activity: “+” ≥25 μM, “++” ≥1 μM and <25 μM, and “+++”<1 μM.
In each table header, A: NAMPT enzyme inhibitory activity, IC50 (μM); B: Cellular NAD inhibitory activity, IC50 (μM); and C: change in NAD levels in response to test compound, shown as % of NAD activity in the absence of test compound. […] A percentage of 100 percent would indicate no increase or decrease in NAD levels as compared to that measured for untreated control cells, while a percentage of 50 percent would indicate a decrease in NAD levels of 50 percent as compared to that measured for untreated control cells.

| SMILES | C: change in NAD levels in response to test compound, shown as % of NAD activity in the absence of test compound |
| --- | --- |
| CN1CCC(C(=O)Nc2ccc3nc(-c4ccc(F)cc4)c(-c4ccc(F)cc4)nc3c2)CC1 [BC19309] | 18% |
| O=C(NCCN1CCOCC1)c1ccc2nc(-c3ccc(Cl)cc3)c(-c3ccc(Cl)cc3)nc2c1 [BC19497] | 49% |
| Cc1ccc(S(=O)(=O)c2nc3cc(C(=O)N4CCN(C)CC4)ccc3nc2-c2ccc(F)cc2)cc1 [BC19308] | 48% |
| CN1CCN(C(=O)c2ccc3nc(-c4ccc(F)cc4)c(Nc4ccc(F)cc4)nc3c2)CC1 [BC19578] | 89% |
| O=C(NCC1CC1)Nc1ccc2nc(-c3ccc(F)cc3)c(-c3ccc(F)cc3)nc2c1 [BC19569] | 57% |
| CN1CCN(C(=O)c2ccc3nc(C(F)(F)F)c(-c4ccc(F)cc4)nc3c2)CC1 [BC19103] | 92% |
| O=C(NCc1ccccn1)Nc1ccc2nc(-c3ccc(F)cc3)c(-c3ccc(F)cc3)nc2c1 [BC19570] | 29% |
| Fc1ccc(-c2nc3ccc(-c4nnc[nH]4)cc3nc2-c2ccc(F)cc2)cc1 [BC19143] | 80% |
| O=C(NCCCN1CCOCC1)Nc1ccc2nc(-c3ccc(F)cc3)c(-c3ccc(F)cc3)nc2c1 [BC19576] | 61% |
| CN1CCN(C(=O)c2ccc3nc(-c4ccc(F)cc4)c(-c4ccc(F)cc4F)nc3c2)CC1 [BC19318] | 67% |
| CN1CCN(CCCNS(=O)(=O)c2ccc3nc(-c4ccc(F)cc4)c(-c4ccc(F)cc4)nc3c2)CC1 [BC19561] | 24% |
| C#CCNC(=O)c1cccc2nc(-c3ccc(F)cc3)c(-c3ccc(F)cc3)nc12 [BC19321] | 72% |
| Cn1cc(-c2ccc3nc(-c4ccc(F)cc4)c(-c4ccc(F)cc4)nc3c2)cn1 [BC19302] | 58% |
| Cc1nc(C)c(-c2ccc3nc(-c4ccc(F)cc4)c(-c4ccc(F)cc4)nc3c2)s1 [BC19241] | 79% |
| CN1CCN(C(=O)c2ccc3nc(-c4ccc(F)cc4)c(-c4ccc(Cl)cc4)nc3c2)CC1 [BC19317] | 42% |
| O=C(NCc1ccncc1)Nc1ccc2nc(-c3ccc(F)cc3)c(-c3ccc(F)cc3)nc2c1 [BC19572] | 26% |
| Fc1ccc(-c2nc3ccc(-c4nnco4)cc3nc2-c2ccc(F)cc2)cc1 [BC19250] | 13% |
| Fc1ccc(-c2nc3ccc(-c4nnc[nH]4)cc3nc2C(F)(F)F)cc1 [BC19159] | 92% |
| O=C(NCCN1CCOCC1)c1ccc2nc(-c3ccc(F)cc3)c(-c3ccc(F)cc3)nc2c1 [BC19237] | 24% |

| SMILES | C: change in NAD levels in response to test compound, shown as % of NAD activity in the absence of test compound |
| --- | --- |
| CCCc1nnc(-c2ccc3nc(-c4ccc(F)cc4)c(-c4ccc(F)cc4)nc3c2)[nH]1 [BC19247] | 94% |
| O=C(Nc1ccc2nc(-c3ccc(F)cc3)c(-c3ccc(F)cc3)nc2c1)NC1CC1 [BC19568] | 81% |
| Cc1cnc(-c2ccc3nc(-c4ccc(F)cc4)c(-c4ccc(F)cc4)nc3c2)o1 [BC19140] | 90% |
| Cc1ccc(S(=O)(=O)c2nc3cc(C(=O)N4CCN(C)CC4)ccc3nc2-c2ccc(F)cc2)cc1F [BC19307] | 31% |
| CN1CCN(C(=O)c2ccc3nc(-c4ccc(F)cc4)c(S(=O)(=O)c4cccc(F)c4)nc3c2)CC1 [BC19395] | 71% |
| COCCCNC(=O)Nc1ccc2nc(-c3ccc(F)cc3)c(-c3ccc(F)cc3)nc2c1 [BC19574] | 61% |
| CN1CCN(CCNC(=O)Nc2ccc3nc(-c4ccc(F)cc4)c(-c4ccc(F)cc4)nc3c2)CC1 [BC19616] | 31% |
| CN(C)CCNS(=O)(=O)c1ccc2nc(-c3ccc(F)cc3)c(-c3ccc(F)cc3)nc2c1 [BC19555] | 1% |
| O=S(=O)(NC1CC1)c1ccc2nc(-c3ccc(F)cc3)c(-c3ccc(F)cc3)nc2c1 [BC19505] | 30% |
| CNc1ncc(-c2ccc3nc(-c4ccc(F)cc4)c(-c4ccc(F)cc4)nc3c2)o1 [BC19619] | 55% |
| CN1CCN(C(=O)c2cc3nc(-c4ccc(F)cc4)c(-c4ccc(F)cc4)nc3cn2)CC1 [BC19666] | 70% |
| OCCn1ncc(-c2ccc3nc(-c4ccc(F)cc4)c(-c4ccc(F)cc4)nc3c2)n1 [BC19404] | 65% |
| CCNC(=O)Nc1ccc2nc(-c3ccc(F)cc3)c(-c3ccc(F)cc3)nc2c1 [BC19563] | 90% |
| CC(=O)N1CCC(C(=O)Nc2ccc3nc(-c4ccc(F)cc4)c(-c4ccc(F)cc4)nc3c2)CC1 [BC19310] | 52% |
| C#CCNC(=O)c1ccc2nc(-c3ccc(F)cc3F)c(-c3ccccc3)nc2c1 [BC19406] | 93% |
| CNC(=O)c1ccc2nc(-c3ccc(OC(F)(F)F)cc3)c(-c3ccc(OC(F)(F)F)cc3)nc2c1 [BC19447] | 50% |
| CN1CCN(C(=O)c2ccc3nc(-c4ccc(F)cc4)c(-c4cccs4)nc3c2)CC1 [BC19185] | 94% |
| Cn1nnnc1-c1ccc2nc(C(F)(F)F)c(-c3ccc(F)cc3)nc2c1 [BC19112] | 86% |
| O=S(=O)(NCCCO)c1ccc2nc(-c3ccc(F)cc3)c(-c3ccc(F)cc3)nc2c1 [BC19509] | 66% |
